Usually MIC stands for the smallest concentration in the dilution series that meets the test's criterion for growth inhibition.

For one molecule, MIC and HD50 results are on record in ChEMBL document CHEMBL1147581, “Development of novel lipid-peptide hybrid compounds with antibacterial activity from natural cationic antibacterial peptides” (Bioorg Med Chem Lett, 2004).

In brackets after ≈: the same amount, converted by molar mass. Activity calls are given as the source filed them. Residues, ends and D or L forms follow the SMILES beside them.

The subject of one test is Pseudomonas aeruginosa. The experiment in a line: Minimum inhibitory concentration against Pseudomonas aeruginosa ATCC 9027. Format: functional.
Test [1] is described as follows: Minimum inhibitory concentration against Micrococcus luteus ATCC 9341. Format: functional.
A further test deals with Candida albicans. The experiment in a line: Minimum inhibitory concentration against Candida albicans ATCC 36232. It counts as functional.
The next test is filed under the species Mus musculus. The experiment in a line: Concentration required for half-maximal lysis of mouse erythrocytes; NA = not active. It counts as functional, organism-based.
In another test the test system is Staphylococcus aureus. The experiment in a line: Minimum inhibitory concentration against Staphylococcus aureus ATCC 6538. It counts as functional.
The next test concerns Escherichia coli. As to the kind of experiment: Minimum inhibitory concentration against Escherichia coli ATCC 25922. Format: functional.

For the molecule `CC[C@H](C)[C@H](NC(=O)CN)C(=O)NCC(=O)N[C@@H](CCCCN)C(=O)N[C@@H](Cc1ccccc1)C(=O)N[C@@H](CC(C)C)C(=O)N[C@@H](Cc1c[nH]cn1)C(=O)N[C@@H](CO)C(=O)N[C@@H](C)C(=O)N[C@@H](CCCCN)C(=O)N[C@@H](CCCCN)C(=O)N[C@@H](Cc1ccccc1)C(=O)NCC(=O)N[C@@H](CCCCN)C(=O)N[C@@H](C)C(=O)N[C@@H](Cc1ccccc1)C(=O)N[C@H](C(=O)NCC(=O)N[C@@H](CCC(=O)O)C(=O)N[C@H](C(=O)N[C@@H](CCSC)C(=O)N[C@@H](CC(N)=O)C(=O)N[C@@H](CO)C(=O)O)[C@@H](C)CC)C(C)C` [MAGAININ 2] (H-GIGKFLHSAKKFGKAFVGEIMNS-OH), the MIC in the test with Pseudomonas aeruginosa was 20 µg/mL (≈ 8.11 µM); in test [1], 50 µg/mL (≈ 20.3 µM); in the test with Candida albicans it was 50 µg/mL (≈ 20.3 µM); in the test with Staphylococcus aureus, 40 µg/mL (≈ 16.2 µM); with Escherichia coli, 20 µg/mL (≈ 8.11 µM). Moreover, in the test listed under Mus musculus, the HD50 result was “inactive”.
